Data from US20240390490A1, “PHARMACEUTICAL COMPOSITIONS FOR THE TREATMENT OF CANCERS” (Rutgers, The State University of New Jersey, priority 2021, published 2024).
Read-outs that look alike come from different tables or passages of the source.

Assays:
[1] = tested on: MDA-MB-231, MDA-MB-468, and T47D cells; details: read-out: IC50 dose; range over cell lines and time of treatment (24, 48, 72 hours)
Experimental: (§1) Cells in media with vehicle treatment are considered control wells. MTT (3-(4,5-dimethyl-2-thiazolyl)-2,5-diphenyl-2H-tetrazolium bromide) was prepared as a stock solution of 5 mg/mL in 1× phosphate-buffered saline (PBS, pH 7.2). At the end of the drug treatment period (24 or 48 or 72 hours), 10 μL of MTT solution was added to each well. After incubation for 4 hours at 37° C., 100 μL of solubilizing buffer (10% sodium dodecyl sulfate dissolved in 0.01 N HCl) was added to each well. After a 15-minute incubation at 37° C., the 96-well plate was read by a plate reader at 590 nm for absorbance density values to determine the cell viability. The cell viability (percentage of control) is calculated by using the following formula: (OD of treated well (−blank))/(mean OD control well (−blank))×100. […] Drug effects on these cells were determined in quadruplicate wells in three independent experiments.

MDA-MB-468 cells = test: cells; details: read-out: Cell Viability IC50 (μM) ± SEM
Experimental: as §1

T47D cells = test: cells
Experimental: as §1

MDA-MB-231 cells = test: cells; details: read-out: Cell Viability IC50 (μM) ± SEM
Experimental: as §1

[2] = tested on: MDA-MB-231, MDA-MB-468, and T47D cells; test: Western blot of apoptotic regulatory proteins in breast cancer cells; format: cell-based, human; details: 100-μM, 48 hours (Example 9)
Experimental: For protein analyses, tumor tissues from in vivo experiments, enriched NK cells from the spleen, and NK-92 MI cancer cell co-incubated samples were lysed with a buffer containing protease and phosphatase inhibitors (25 mM Tris-HCl, pH 7.4; 150 mM NaCl; 1% Nonidet P-40; 1 mM EDTA; and 5% glycerol with Pierce Halt Protease Inhibitor). Protein ([…]) from total lysate was loaded and separated on a 4-20% SDS-PAGE and transferred overnight to polyvinylidene difluoride membranes. Membranes were incubated with primary Ab for 12 hours at 4° C. in blocking buffer, 5% w/v nonfat dry milk in TBS, and 0.1% Tween 20. The following primary antibodies were purchased from Santa Cruz Biotechnology (Santa Cruz, CA): anti-perforin rabbit polyclonal (1:250), anti-granzyme B mouse monoclonal (1:200), anti-IFN-γ mouse monoclonal (1:250), anti-Snail (1:200), anti-Slug (1:200), and anti-Twist. Anti-E-cadherin (1:250), anti-N-cadherin (1:250), and anti-NKG2D goat polyclonal (1:500) were all from Abcam (Cambridge, MA). Membranes were washed and incubated with peroxidase-conjugated secondary Abs (1:5000; Vector Laboratories) for 1 hour at room temperature. Membranes were incubated with ECL western blot chemiluminescence reagent (Pierce) and exposed to x-ray film, which was developed, and densitometry was performed using Image J analysis software (National Institutes of Health). Each protein was normalized to corresponding intensities for β-actin.
The effects on apoptotic regulatory protein levels and signaling pathway were determined by treating MDA-MB-231, MDA-MB-468, and T47D cells with a 100-μM concentration of the drugs alone or in combination or vehicle alone for 48 hours. After the treatment period, cell were extracted and used for Western blot analysis of anti-apoptotic p-Bcl-xL and p-Bcl2, effector proteins such as p-Bax, pro-apoptotic molecule p-Bim, effector caspase 3 and Cytochrome c levels. Representative blots and mean densitometric values are presented as ratio of β-actin in the histograms. Data presented are mean±SEM (n=5-6 samples/group) and were analyzed using one-way ANOVA with the Newman-Keuls multiple comparisons post hoc test.

CT26 colon cancer cells = test: CT26 colon cancer subcutaneous tumors in BALB/c mice; format: in vivo, mouse; details: male and female mice
Experimental: Balb/c mice (both male and female) were obtained from Taconic Biosciences and injected with 1×10^6 cells of CT26. Once palpable tumors develop (˜50 mm3), animals were allocated into 6 groups (3 mice/group). […] Mice were monitored every day. Tumor volume and mice weight were measured daily. Animals were euthanized when the tumor reached 2,000 mm^3. […] For tumor growth study, Mouse CT26 colon cancer cells were grown until about 90% confluence just 1 day before injection. […] Three dimensions of tumor were measured using electronic calipers, and tumor volumes were calculated by the formula as, L×W^2/2. The mean±SE of tumor volume was calculated weekly for each experimental group and the data are expressed as mean absolute tumor volume.

YAC-1 target cells = test: NK cell cytotoxicity of PBMC- and spleen-derived NK cells (calcein AM); format: in vivo, rat
Experimental: After the end of the drug treatment period, the spleen tissues from control and drug-treated rats were processed, and RBCs and granulocytes were removed from splenocyte suspensions by density centrifugation using Histopaque 1083 (Sigma-Aldrich) as previously described (8). Splenocytes (˜10×10^7 cells per spleen) were extracted from the middle layer, washed with RPMI-1640 (Gibco), and resuspended in buffer (PBS, 0.5% BSA). Splenocytes were incubated with primary Abs conjugated to FITC (BD Biosciences), anti-CD6 (OX52; T cells), anti-CD45RA (OX-33; mature B cells), and anti-RT1B (OX-6; dendritic cells and macrophages), followed by secondary incubation with anti-FITC microbeads, according to the manufacturer's instructions (Miltenyi Biotec). NK cells were then enriched by magnetic separation (negative selection) using an AutoMACS Magnetic Separator (Miltenyi Biotec). The enriched fraction consistently yielded ˜5×10^6 cells per spleen with a purity of ˜80-90%. […] The pelleted cells (PBMC) were counted in a hemocytometer and assayed for viability by trypan blue exclusion. […]
The cytotoxicity of enriched NK cells from PBMC and the spleen against NK-sensitive YAC-1 (ATCC) target cells was determined by calcein AM assays as previously described (8). […] All assays were analyzed and percent cytotoxicity for each sample was calculated as previously described (8).

With `CC1(C)SSC(C)(C)[C@@H](NC(=O)[C@@H](N)Cc2ccc(O)cc2)C(=O)NCC(=O)N[C@@H](Cc2ccccc2)C(=O)N[C@H]1C(=O)O` [DPDPE, (D-Pen^2, D-Pen^5)-enkephalin] as the molecule, how does the IC50 [1] read?
Its IC50 is 115 to 140 µM.

What about the IC50 (MDA-MB-468 cells; MDA-MB-468, 24 h) of the same molecule?
Its IC50 is 115 ± 1.23 µM.

What about the IC50 (MDA-MB-468 cells; MDA-MB-468, 48 h) of the same molecule?
The IC50 was 118 ± 1.22 µM.

And the IC50 (MDA-MB-468 cells; MDA-MB-468, 72 h)?
Its IC50 is 120 ± 2.19 µM.

And the IC50 (T47D cells; read-out: Cell Viability IC50 (μM) ± SEM, 24 h)?
The IC50 was 125.1 ± 1.21 µM.

What about the IC50 (T47D cells; read-out: Cell Viability IC50 (μM) ± SEM, 48 h) of the same molecule?
The IC50 was 120.2 ± 1.17 µM.

What about the IC50 (T47D cells; read-out: Cell Viability IC50 (μM) ± SEM, 72 h) of the same molecule?
The IC50 was 120.46 ± 0.04 µM.

What about the IC50 (MDA-MB-231 cells; MDA-MB-231, 24 h) of the same molecule?
Its IC50 is 140.4 ± 0.39 µM.

And the IC50 (MDA-MB-231 cells; MDA-MB-231, 48 h)?
Its IC50 is 120.8 ± 0.36 µM.

And the IC50 (MDA-MB-231 cells; MDA-MB-231, 72 h)?
The IC50 was 119.9 ± 1.07 µM.

With `O=C1CC[C@@]2(O)[C@H]3Cc4ccc(O)c5c4[C@@]2(CCN3CC2CC2)[C@H]1O5` [NTX, 17-(cyclopropylmethyl)-4,5α-epoxy-3,14-dihydroxymorphinan-6-one] as the molecule, how does the IC50 (MDA-MB-468 cells; Homo sapiens, MDA-MB-468, 24 h) read?
Its IC50 is 122.4 ± 0.63 µM.

What about the IC50 (MDA-MB-468 cells; Homo sapiens, MDA-MB-468, 48 h) of the same molecule?
The IC50 was 121 ± 1.82 µM.

What about the IC50 (MDA-MB-468 cells; Homo sapiens, MDA-MB-468, 72 h) of the same molecule?
The IC50 was 120 ± 1.23 µM.

What about the IC50 (T47D cells; Homo sapiens, 24 h, read-out: Cell Viability IC50 (μM) ± SEM) of the same molecule?
The IC50 was 125 ± 1.37 µM.

What about the IC50 (T47D cells; Homo sapiens, 48 h, read-out: Cell Viability IC50 (μM) ± SEM) of the same molecule?
The IC50 was 122 ± 1.72 µM.

And the IC50 (T47D cells; Homo sapiens, 72 h, read-out: Cell Viability IC50 (μM) ± SEM)?
Its IC50 is 120 ± 1.61 µM.

And the IC50 (MDA-MB-231 cells; Homo sapiens, MDA-MB-231, 24 h)?
The IC50 was 140.8 ± 0.15 µM.

And the IC50 (MDA-MB-231 cells; Homo sapiens, MDA-MB-231, 48 h)?
The IC50 was 120.5 ± 0.38 µM.

What about the IC50 (MDA-MB-231 cells; Homo sapiens, MDA-MB-231, 72 h) of the same molecule?
The IC50 was 121 ± 1.65 µM.

And the “anti-apoptotic Bcl-xL, p-Bcl-xL, Bcl-2, and p-Bcl-2” value [2]?
Its value is “downregulated”.

And the “levels of Bax, p-Bax and p-Bim” value [2]?
The value was “increased”.

And the “levels of Cytochrome c” value [2]?
The value was “increased”.

With `CC(C)NCC(O)COc1cccc2ccccc12` (stereo not drawn) [PRO, propranolol] as the molecule, how does the tumor volume (CT26 colon cancer cells) read?
The tumor volume was “decreasing tumor volume”.

And the “NK cell cytolytic activity” value (YAC-1 target cells)?
The value was “elevated”.

And the “anti-apoptotic Bcl-xL, p-Bcl-xL, Bcl-2, and p-Bcl-2” value [2]?
Its value is “downregulated”.

What about the “levels of Bax, p-Bax and p-Bim” value [2] of the same molecule?
The value was “increased”.

What about the “levels of Cytochrome c” value [2] of the same molecule?
The value was “increased”.
